Test results from patent US7718651B2, “Inhibitors of FtsZ and uses thereof” (priority 2002, dated 2010).

These compounds were tested on M. tuberculosis H37Rv (assay: microbe, parasite or virus in culture). Conditions: M. tuberculosis H37Rv, screen concentration 12.5 g/ml [sic], Table 8.
Assay type: cell-based
With `COC(=O)Nc1cc(Cl)cc(NC(=O)OC)n1` [Compound A201] the “% Inh” value was 0%.
For `CCOC(=O)Nc1nc(NC(=O)OCC)c([N+](=O)[O-])c(Cl)c1[N+](=O)[O-]` [Compound A202], the “% Inh” value was 0%.
In the case of `CCOC(=O)Nc1cc2[nH]cnc2c(Cl)n1` [Compound A203], the “% Inh” value is reported as 0%.
`CCOC(=O)Nc1cc(N(C)/N=C/c2ccccc2)c([N+](=O)[O-])c(N)n1` [Compound A204] was tested, and the “% Inh” value was 0%.
In the case of `CCOC(=O)Nc1cc(NNC=O)c([N+](=O)[O-])c(N)n1` [Compound A205], the “% Inh” value is reported as 0%.
In the case of `CCOC(=O)Nc1cc2[nH]nnc2c(Cl)n1` [Compound A206], the “% Inh” value is reported as 0%.
In the case of `CCOC(=O)Nc1ccccn1` [Compound A207], the “% Inh” value is reported as 0%.
In the case of `CCOC(=O)Nc1cc(NCC(=O)c2ccc(C)c(C)c2)c([N+](=O)[O-])c(N)n1` [Compound A208], the “% Inh” value is reported as 0%.
In the case of `CCOC(=O)Nc1cc(N(C)N)c([N+](=O)[O-])c(N)n1` [Compound A209], the “% Inh” value is reported as 0%.
For `CCOC(=O)Nc1cc(NC/C(=N/O)c2ccc(C)cc2)c([N+](=O)[O-])c(N)n1` [Compound A210], the “% Inh” value was 0%.
`CCOC(=O)Nc1cc(NCC(=O)c2ccc(F)cc2)c([N+](=O)[O-])c(N)n1` [Compound A211] was tested, and the “% Inh” value was 0%.
For `CCOC(=O)Nc1cc(NC/C(=N/O)c2ccc(OC)c(OC)c2OC)c([N+](=O)[O-])c(N)n1` [Compound A212], the “% Inh” value was 0%.
For `CCOC(=O)Nc1cc2c(c(N)n1)[N+](=O)OC(c1ccccc1)N[N-]2` (stereo not drawn) [Compound A214], the “% Inh” value was 0%.
In the case of `CCOC(=O)Nc1cc(Cl)c2nn[nH]c2n1` [Compound A215], the “% Inh” value is reported as 0%.
For `CCOC(=O)Nc1cc(NC(c2ccccc2)c2ccccc2)c2nc[nH]c2n1` [Compound A216], the “% Inh” value was 0%.
`CCOC(=O)Nc1cc(N)c2nc[nH]c2n1` [Compound A217] was tested, and the “% Inh” value was 0%.
In the case of `CCOC(=O)Nc1cc(N)c2nnsc2n1` [Compound A218], the “% Inh” value is reported as 0%.
`CCOC(=O)Nc1cc2[nH]c(-c3ccccc3)nc2c(Cl)n1` [Compound A219] was tested, and the “% Inh” value was 0%.
For `CCOC(=O)Nc1cc(NCC(=O)c2ccc([N+](=O)[O-])cc2)c([N+](=O)[O-])c(N)n1` [Compound A220], the “% Inh” value was 0%.
In the case of `CCOC(=O)Nc1cc(NC/C(=N/O)c2ccc(C(F)(F)F)cc2)c([N+](=O)[O-])c(N)n1` [Compound A221], the “% Inh” value is reported as 0%.
For `CCOC(=O)Nc1cc(NCC(=O)c2ccc(C(F)(F)F)cc2)c([N+](=O)[O-])c(N)n1` [Compound A222], the “% Inh” value was 0%.
`CCOC(=O)Nc1ccc(/N=C/c2ccccc2)cn1` [Compound A223] was tested, and the “% Inh” value was 0%.
`CCOC(=O)Nc1cc2c(c(N)n1)N=C(c1ccccc1)CO2` [Compound A224] was tested, and the “% Inh” value was 0%.
`CCOC(=O)Nc1cc2c(c(N)n1)N=C(c1ccc([N+](=O)[O-])cc1)CO2` [Compound A225] was tested, and the “% Inh” value was 0%.
For `CCOC(=O)Nc1cc2c(c(N)n1)N=C(c1ccc(Cl)cc1)CO2` [Compound A226], the “% Inh” value was 0%.
In the case of `CCOC(=O)Nc1cc2c(c(N)n1)N=C(c1cc(OC)c(OC)c(OC)c1)CO2` [Compound A227], the “% Inh” value is reported as 0%.
With `CCOC(=O)Nc1cc2oc(=O)c(-c3ccccc3)nc2c(N)n1` [Compound A228] the “% Inh” value was 0%.
In the case of `CCOC(=O)Nc1cc2c(c(NC(=O)CBr)n1)N=C(c1ccccc1)CO2` [Compound A229], the “% Inh” value is reported as 0%.
In the case of `CCOC(=O)Nc1cc2c(c(/N=C/N(C)C)n1)N=C(c1ccccc1)CO2` [Compound A230], the “% Inh” value is reported as 0%.
`CCOC(=O)Nc1cc(NC/C(=N/O)c2cccc(OC)c2)c([N+](=O)[O-])c(N)n1` [Compound A231] was tested, and the “% Inh” value was 0%.
`CCOC(=O)Nc1cc(NCC(O)CN(C)C)c([N+](=O)[O-])c(N)n1` (stereo not drawn) [Compound A232] was tested, and the “% Inh” value was 0%.
With `CCOC(=O)Nc1cc(NCC(C)CN(C)c2ccc(OC)cc2)c([N+](=O)[O-])c(N)n1` (stereo not drawn) [Compound A233] the “% Inh” value was 0%.
With `CCOC(=O)Nc1cc(Cl)c2nc(-c3ccccc3)[nH]c2n1` [Compound A234] the “% Inh” value was 0%.
For `CCOC(=O)Nc1cc(NC/C(=N/O)c2ccccc2)c([N+](=O)[O-])c(N)n1` [Compound A235], the “% Inh” value was 0%.
`CCOC(=O)Nc1ccc(N)c(N)n1` [Compound A236] was tested, and the “% Inh” value was 0%.
In the case of `CCOC(=O)Nc1cc(NCC(=O)c2ccc(OC)cc2)c([N+](=O)[O-])c(N)n1` [Compound A237], the “% Inh” value is reported as 0%.
`CCOC(=O)Nc1cc(NC/C(=N/O)c2ccc([N+](=O)[O-])cc2)c([N+](=O)[O-])c(N)n1` [Compound A238] was tested, and the “% Inh” value was 0%.
`CCOC(=O)Nc1cc(NC/C(=N/O)c2ccc(Cl)cc2)c([N+](=O)[O-])c(N)n1` [Compound A239] was tested, and the “% Inh” value was 0%.
For `CCOC(=O)Nc1cc(NCC(=O)c2ccc(Cl)cc2)c([N+](=O)[O-])c(N)n1` [Compound A240], the “% Inh” value was 0%.
In the case of `CCOC(=O)Nc1cc2c([nH]c(=S)n2/N=C/c2ccc3c(c2)OCO3)c(N)n1` [Compound A241], the “% Inh” value is reported as 0%.
For `CCOC(=O)Nc1cc2c(ncn2/N=C/c2ccc(OC)cc2)c(N)n1` [Compound A242], the “% Inh” value was 0%.
In the case of `CCOC(=O)Nc1cc(NC(C)CCCN(CC)CC)c([N+](=O)[O-])c(N)n1` (stereo not drawn) [Compound A243], the “% Inh” value is reported as 0%.
For `CCOC(=O)Nc1cc(NCc2ccc(S(N)(=O)=O)cc2)c([N+](=O)[O-])c(N)n1` [Compound A244], the “% Inh” value was 0%.
`CCOC(=O)Nc1cc(NCCc2ccc(S(N)(=O)=O)cc2)c2ncc(C)nc2n1` [Compound A251] was tested, and the “% Inh” value was 0%.
In the case of `CCOC(=O)Nc1cc(NCCc2ccc(S(=O)(=O)N(CC)CC)cc2)c2nccnc2n1` [Compound A252], the “% Inh” value is reported as 0%.
In the case of `CCOC(=O)Nc1cc(NC(C)CCCN(CC)CC)c2nccnc2n1` (stereo not drawn) [Compound A253], the “% Inh” value is reported as 0%.
For `CCOC(=O)Nc1cc(NC(C)CCCN(CC)CC)c2ncc(C)nc2n1` (stereo not drawn) [Compound A254], the “% Inh” value was 0%.
With `CCOC(=O)Nc1cc(NCCc2ccc(S(=O)(=O)N(CC)CC)cc2)c2ncc(C)nc2n1` [Compound A255] the “% Inh” value was 0%.
`CCOC(=O)Nc1cc(Nc2ccc(Cl)cc2)c([N+](=O)[O-])c(N)n1` [Compound A256] was tested, and the “% Inh” value was 0%.
`CCOC(=O)Nc1cc(Nc2ccc(Cl)cc2)c2nc(-c3ccccc3)c(-c3ccccc3)nc2n1` [Compound A257] was tested, and the “% Inh” value was 0%.
For `CCOC(=O)Nc1cc(Nc2ccc(Cl)cc2)c2ncc(-c3ccc(Cl)cc3)nc2n1` [Compound A258], the “% Inh” value was 0%.
`CCOC(=O)Nc1cc(NCCc2ccc(S(=O)(=O)N(CC)CC)cc2)c2ncc(-c3ccc(Cl)cc3)nc2n1` [Compound A259] was tested, and the “% Inh” value was 0%.
In the case of `CCOC(=O)Nc1cc(Nc2ccc(Cl)cc2)c2ncc(C)nc2n1` [Compound A260], the “% Inh” value is reported as 0%.
With `CCOC(=O)Nc1cc(NC(c2ccccc2)c2ccccc2)c2ncc(-c3ccc(Cl)cc3)nc2n1` [Compound A261] the “% Inh” value was 0%.
For `CCOC(=O)Nc1cc(N)c2ncc(-c3ccc(Cl)cc3)nc2n1` [Compound A262], the “% Inh” value was 0%.
For `CCOC(=O)Nc1cc(NC(c2ccccc2)c2ccccc2)c(/N=C/c2ccc(Cl)cc2Cl)c(N)n1` [Compound A263], the “% Inh” value was 0%.
In the case of `CCOC(=O)Nc1cc(NC(c2ccccc2)c2ccccc2)c([N+](=O)[O-])c(N)n1` [Compound A264], the “% Inh” value is reported as 0%.
`CCOC(=O)Nc1cc(NC(c2ccccc2)c2ccccc2)c2nc(-c3cc(OC)c(OC)c(OC)c3)cnc2n1` [Compound A265] was tested, and the “% Inh” value was 0%.
With `CCCCOC(=O)Nc1cc(NC(c2ccccc2)c2ccccc2)c2nc(-c3cc(OC)c(OC)c(OC)c3)c(-c3cc(OC)c(OC)c(OC)c3)nc2n1` [Compound A267] the “% Inh” value was 0%.
In the case of `CCOC(=O)Nc1cc(Cl)c2nc(-c3cc(OC)c(OC)c(OC)c3)c(-c3cc(OC)c(OC)c(OC)c3)nc2n1` [Compound A268], the “% Inh” value is reported as 0%.
With `CCOC(=O)Nc1cc(NC(C)CCCN(CC)CC)c([N+](=O)[O-])c(N)n1.Cl` (stereo not drawn) [Compound A269] the “% Inh” value was 0%.
In the case of `CCOC(=O)Nc1cc(NC(c2ccccc2)c2ccccc2)c2ncc(=O)[nH]c2n1` [Compound A270], the “% Inh” value is reported as 0%.
For `CCOC(=O)Nc1cc(NCC(O)CN)c([N+](=O)[O-])c(NC(=O)OCC)n1` (stereo not drawn) [Compound A271], the “% Inh” value was 0%.
With `CCOC(=O)Nc1cc(N)c([N+](=O)[O-])c(NC(=O)OCC)n1` [Compound A272] the “% Inh” value was 0%.
`CCOC(=O)Nc1cc(N)c2nc(CN(C)c3ccccc3)cnc2n1` [Compound A273] was tested, and the “% Inh” value was 0%.
In the case of `CCOC(=O)Nc1cc(N)c([N+](=O)[O-])c(NCC(O)CN(C)c2ccccc2)n1` (stereo not drawn) [Compound A274], the “% Inh” value is reported as 0%.
`CCOC(=O)Nc1cc(N)c2nc(O)[nH]c2n1` [Compound A275] was tested, and the “% Inh” value was 0%.
With `CCOC(=O)Nc1cc2ncc(C)nc2c(NC(=O)OCC)n1` [Compound A276] the “% Inh” value was 0%.
For `CCOC(=O)Nc1cc2nc(C)cnc2c(NC(=O)OCC)n1` [Compound A277], the “% Inh” value was 0%.
In the case of `CCOC(=O)Nc1cc2[nH]cnc2c(NC(=O)OCC)n1.Cl` [Compound A278], the “% Inh” value is reported as 0%.
In the case of `C=CCNc1cc(NC(=O)OCC)nc(N)c1[N+](=O)[O-]` [Compound A279], the “% Inh” value is reported as 0%.
`CCOC(=O)Nc1cc(NC(c2ccccc2)c2ccccc2)c2nc[nH]c2n1.Cl` [Compound A280] was tested, and the “% Inh” value was 0%.
`C=CCNc1cc(NC(=O)OCC)nc(NC(=O)OCC)c1[N+](=O)[O-]` [Compound A281] was tested, and the “% Inh” value was 0%.
With `CCOC(=O)Nc1cc(N)c2nc(C)cnc2n1` [Compound A282] the “% Inh” value was 0%.
In the case of `CCOC(=O)Nc1cc(N)c2c(n1)NCC(C)=N2` [Compound A283], the “% Inh” value is reported as 0%.
